Laboratory results: PubChem BioAssay AID268 (DTP/NCI, 2004)
Where “and” joins values, the source holds several entries; their conditions need not be identical. Equal entries are not always repeated.

Tested on: CD2F1 mice, P1798 lymphosarcoma sc, tumor weight T/C
Experiment: NCI In Vivo Anticancer Drug Screen. Data for tumor model P1798 Lymphosarcoma (subcutaneous) in CD2F1 (CDF1) mice
Settings: endpoint: mean tumor weight, higher = larger tumour
Description: The antitumor activity of compounds was measured in mice bearing transplantable tumors. Survival or tumor size were measured and the results are expressed as the measurement made in the treated group (T) divided by the measurement made in the vehicle treated control group (C). The tumor model used in this assay is P1798 Lymphosarcoma (subcutaneous) in CD2F1 (CDF1) mice

[1] = dose: 50.0 mg/kg/injection, schedule: Q01DX010 (ip), vehicle: saline
[2] = dose: 100.0 mg/kg/injection, schedule: Q01DX010 (ip), vehicle: saline
[3] = dose: 200.0 mg/kg/injection, schedule: Q01DX010 (ip), vehicle: saline
[4] = dose: 400.0 mg/kg/injection, schedule: Q01DX010 (ip), vehicle: saline
[5] = dose: 3.13 mg/kg/injection, schedule: Q01DX010 (ip), vehicle: saline
[6] = dose: 6.25 mg/kg/injection, schedule: Q01DX010 (ip), vehicle: saline
[7] = dose: 12.5 mg/kg/injection, schedule: Q01DX010 (ip), vehicle: saline
[8] = dose: 1.25 mg/kg/injection, schedule: Q01DX010 (ip), vehicle: saline
[9] = dose: 2.5 mg/kg/injection, schedule: Q01DX010 (ip), vehicle: saline
[10] = dose: 12.5 mg/kg/injection, schedule: Q01DX005 (sc), vehicle: steriod suspending solution
[11] = dose: 25.0 mg/kg/injection, schedule: Q01DX005 (sc), vehicle: steriod suspending solution
[12] = dose: 50.0 mg/kg/injection, schedule: Q01DX005 (sc), vehicle: steriod suspending solution
[13] = dose: 100.0 mg/kg/injection, schedule: Q01DX005 (sc), vehicle: steriod suspending solution
[14] = dose: 0.25 mg/kg/injection, schedule: Q01DX010 (ip), vehicle: saline
[15] = dose: 25.0 mg/kg/injection, schedule: Q01DX010 (ip), vehicle: saline
[16] = dose: 25.0 mg/kg/injection, schedule: Q01DX010 (sc), vehicle: steriod suspending solution

## O=c1cnn(C2OC(CO)C(O)C2O)c(=O)[nH]1 (configuration not stated)
[1]
  T/C: 80 % of control
[2]
  T/C: 73 % of control
[3]
  T/C: 49 % of control
[4]
  T/C: 17 % of control

## CCCNc1ncnc2c1cnn2C
[5]
  T/C: 90 % of control
[6]
  T/C: 103 % of control
[7]
  T/C: 86 % of control

## Cc1nc(N2CC2)nc(N2CC2)c1[N+](=O)[O-]
[8]
  T/C: 63 % of control and 82 % of control
[9]
  T/C: 73 % of control and 84 % of control

## C[C@]12CCC(=O)C=C1CC[C@@H]1[C@@H]2[C@@H](O)C[C@@]2(C)[C@H]1CC[C@]2(O)C(=O)CO
[10]
  T/C: 51 % of control
dose: 12.5 mg/kg/injection, schedule: Q02DX010 (sc), vehicle: steriod suspending solution
  T/C: 105 % of control
[11]
  T/C: 15 % of control
dose: 25.0 mg/kg/injection, schedule: Q02DX010 (sc), vehicle: steriod suspending solution
  T/C: 105 % of control
[12]
  T/C: 7 % of control
dose: 50.0 mg/kg/injection, schedule: Q02DX010 (sc), vehicle: steriod suspending solution
  T/C: 110 % of control
[13]
  T/C: 1 % of control

## CC(=O)Nc1ccc(/C=N/Nc2ccc([N+](=O)[O-])cn2)cc1
dose: 62.5 mg/kg/injection, schedule: Q01DX010 (ip), vehicle: saline
  T/C: 66 % of control
dose: 125.0 mg/kg/injection, schedule: Q01DX010 (ip), vehicle: saline
  T/C: 75 % of control
dose: 250.0 mg/kg/injection, schedule: Q01DX010 (ip), vehicle: saline
  T/C: 16 % of control

## C[C@H]1C(=O)O[C@@H]2CCN3CC=C(COC(=O)[C@](C)(O)[C@@]1(C)O)[C@H]23
[5]
  T/C: 74 % of control and 79 % of control
[6]
  T/C: 77 % of control
[7]
  T/C: 62 % of control and 80 % of control

## COc1ccc2cc3[n+](cc2c1OC)CCc1cc2c(cc1-3)OCO2
dose: 12.0 mg/kg/injection, schedule: Q01DX011 (ip), vehicle: saline
  T/C: 75 % of control

## CC(=O)OC(C)(C)/C=C/C(=O)[C@](C)(O)[C@H]1[C@H](O)C[C@@]2(C)[C@@H]3CC=C4[C@@H](C[C@H](O)C(=O)C4(C)C)[C@]3(C)C(=O)C[C@]12C
dose: 0.1 mg/kg/injection, schedule: Q01DX009 (ip), vehicle: saline
  T/C: 99 % of control
dose: 0.16 mg/kg/injection, schedule: Q01DX010 (ip), vehicle: saline
  T/C: 71 % of control
dose: 0.2 mg/kg/injection, schedule: Q01DX009 (ip), vehicle: saline
  T/C: 68 % of control
dose: 0.2 mg/kg/injection, schedule: Q01DX011 (ip), vehicle: carboxymethylcellulose (CMC)
  T/C: 106 % of control
[14]
  T/C: 70 % of control
dose: 0.3 mg/kg/injection, schedule: Q01DX011 (ip), vehicle: carboxymethylcellulose (CMC)
  T/C: 56 % of control
dose: 0.38 mg/kg/injection, schedule: Q01DX010 (ip), vehicle: saline
  T/C: 70 % of control
dose: 0.4 mg/kg/injection, schedule: Q01DX009 (ip), vehicle: saline
  T/C: 77 % of control
dose: 0.57 mg/kg/injection, schedule: Q01DX010 (ip), vehicle: saline
  T/C: 62 % of control
dose: 0.6 mg/kg/injection, schedule: Q01DX011 (ip), vehicle: carboxymethylcellulose (CMC)
  T/C: 82 % of control
dose: 0.8 mg/kg/injection, schedule: Q01DX011 (ip), vehicle: carboxymethylcellulose (CMC)
  T/C: 11 % of control

## NC(=O)n1cccn1
[15]
  T/C: 84 % of control
[1]
  T/C: 75 % of control
[2]
  T/C: 71 % of control
[3]
  T/C: 45 % of control

## O=C(NCCCCC(NC(=O)OCc1ccccc1)C(=O)NCCCCCCNCCCCCCNC(=O)C(CCCCNC(=O)OCc1ccccc1)NC(=O)OCc1ccccc1)OCc1ccccc1 (configuration not stated)
[7]
  T/C: 78 % of control
[15]
  T/C: 66 % of control
[2]
  T/C: 44 % of control and 61 % of control
[3]
  T/C: 70 % of control

## CS(=O)(=O)OCCCCOS(C)(=O)=O
[6]
  T/C: 103 % of control
[1]
  T/C: 58 % of control and 80 % of control
[2]
  T/C: 52 % of control

## Cc1cc2nc3c(=O)[nH]c(=O)nc-3n(CC(O)C(O)C(O)C(O)CO)c2cc1C (configuration not stated)
[1]
  T/C: 86 % of control
[2]
  T/C: 88 % of control
[3]
  T/C: 58 % of control

## O=C(O)CCCc1ccc(N(CCCl)CCCl)cc1
dose: 1.56 mg/kg/injection, schedule: Q01DX010 (ip), vehicle: saline
  T/C: 69 % of control
[5]
  T/C: 31 % of control and 52 % of control
[6]
  T/C: 32 % of control and 37 % of control
[7]
  T/C: 3 % of control

## CC1C[C@@H]2[C@H]([C@@H](O)C[C@@]3(C)[C@H]2CC[C@]3(O)C(=O)CF)[C@@]2(C)CCC(=O)C=C12 (some centres not stated)
[10]
  T/C: 92 % of control
dose: 12.5 mg/kg/injection, schedule: Q01DX010 (sc), vehicle: steriod suspending solution
  T/C: 54 % of control and 60 % of control
[11]
  T/C: 47 % of control
[16]
  T/C: 57 % of control and 71 % of control
[12]
  T/C: 55 % of control
dose: 50.0 mg/kg/injection, schedule: Q01DX010 (sc), vehicle: steriod suspending solution
  T/C: 58 % of control and 65 % of control
dose: 50.0 mg/kg/injection, schedule: Q03DX004 (sc), vehicle: steriod suspending solution
  T/C: 66 % of control
dose: 75.0 mg/kg/injection, schedule: Q02DX010 (sc), vehicle: steriod suspending solution
  T/C: 100 % of control
[13]
  T/C: 14 % of control
dose: 100.0 mg/kg/injection, schedule: Q02DX010 (sc), vehicle: steriod suspending solution
  T/C: 93 % of control
dose: 100.0 mg/kg/injection, schedule: Q03DX004 (sc), vehicle: steriod suspending solution
  T/C: 61 % of control
dose: 150.0 mg/kg/injection, schedule: Q01DX010 (sc), vehicle: steriod suspending solution
  T/C: 118 % of control
dose: 150.0 mg/kg/injection, schedule: Q02DX010 (sc), vehicle: steriod suspending solution
  T/C: 95 % of control
dose: 200.0 mg/kg/injection, schedule: Q03DX004 (sc), vehicle: steriod suspending solution
  T/C: 25 % of control

## [N-]=[N+]=CC(=O)CCC(N)C(=O)O (configuration not stated)
dose: 0.01 mg/kg/injection, schedule: Q01DX010 (ip), vehicle: saline
  T/C: 102 % of control
dose: 0.03 mg/kg/injection, schedule: Q01DX010 (ip), vehicle: saline
  T/C: 89 % of control
dose: 0.05 mg/kg/injection, schedule: Q01DX010 (ip), vehicle: saline
  T/C: 100 % of control
dose: 0.1 mg/kg/injection, schedule: Q01DX010 (ip), vehicle: saline
  T/C: 108 % of control

## CC[n+]1c(-c2ccccc2)c2cc(N)ccc2c2ccc(N)cc21
[8]
  T/C: 108 % of control
[9]
  T/C: 97 % of control
dose: 10.0 mg/kg/injection, schedule: Q01DX010 (ip), vehicle: saline
  T/C: 4 % of control and 10 % of control

## Nc1nc2n[nH]nc2c(=O)[nH]1
dose: 25.0 mg/kg/injection, schedule: Q01DX010 (ip), vehicle: alkali diluted with saline
  T/C: 119 % of control
dose: 50.0 mg/kg/injection, schedule: Q01DX010 (ip), vehicle: alkali diluted with saline
  T/C: 64 % of control
dose: 100.0 mg/kg/injection, schedule: Q01DX010 (ip), vehicle: alkali diluted with saline
  T/C: 42 % of control and 49 % of control
dose: 200.0 mg/kg/injection, schedule: Q01DX010 (ip), vehicle: alkali diluted with saline
  T/C: 15 % of control and 29 % of control
dose: 400.0 mg/kg/injection, schedule: Q01DX010 (ip), vehicle: alkali diluted with saline
  T/C: 2 % of control

## CC(=O)NC1=C(N2CC2)C(=O)C(NC(C)=O)=C(N2CC2)C1=O
[14]
  T/C: 86 % of control
dose: 0.5 mg/kg/injection, schedule: Q01DX010 (ip), vehicle: saline
  T/C: 45 % of control

## COc1cc(-c2ccc(Nc3ccccc3C(=O)O)c(OC)c2)ccc1N
dose: 20.0 mg/kg/injection, schedule: Q01DX010 (ip), vehicle: saline
  T/C: 82 % of control
dose: 40.0 mg/kg/injection, schedule: Q01DX010 (ip), vehicle: saline
  T/C: 52 % of control

## CC1(O)CCC2C3CCC4=CC(=O)CCC4C3CCC21C (configuration not stated)
dose: 125.0 mg/kg/injection, schedule: Q01DX010 (sc), vehicle: steriod suspending solution
  T/C: 83 % of control
dose: 250.0 mg/kg/injection, schedule: Q01DX010 (sc), vehicle: steriod suspending solution
  T/C: 81 % of control
dose: 500.0 mg/kg/injection, schedule: Q01DX010 (sc), vehicle: steriod suspending solution
  T/C: 80 % of control
dose: 1000.0 mg/kg/injection, schedule: Q01DX010 (sc), vehicle: steriod suspending solution
  T/C: 67 % of control

## CC(=O)NCCCCCCNC(C)=O
[1]
  T/C: 112 % of control
[2]
  T/C: 95 % of control
[3]
  T/C: 119 % of control
[4]
  T/C: 86 % of control

## C[C@]12CC[C@@H]3c4ccc(O)cc4CC[C@H]3[C@@H]1C[C@@H](O)[C@@H]2O
dose: 6.25 mg/kg/injection, schedule: Q01DX010 (sc), vehicle: steriod suspending solution
  T/C: 73 % of control and 86 % of control
[16]
  T/C: 69 % of control and 86 % of control
